How the values were obtained:
[1] = system: axotomized murine DRG axons; assay: Axonal degeneration (degeneration index) of transected axons; format: cell-based
Experimental: (§1) The role of the DLK/LZK MAPK pathway in regulating NAD and SARM1 pathways of axonal degeneration was established. Its role in regulating levels of the NAD-synthesizing enzyme NMNAT2 after injury was explored by treating murine DRG axons with the DLK/LZK inhibitor GNE-3511 after axotomy.
To assess the therapeutic potential of post-axotomy MAPK inhibition, axons were treated with GNE-3511 at different time points before or after axotomy (2 h pre-treatment, immediately after axotomy, 0 h, or 2 and 4 hours post-injury).
Due to the different mechanism of action of MAPK and NAMPT inhibition, therapeutic synergy was further tested by treating axotomized axons with the MAPK inhibitor GNE at the time of injury and the NAMPT inhibitor FK866 at different time points (2, 4, 6 or 8 hours post injury).
Transected axons were treated with the NAMPT inhibitor FK866 after injury and NaR was added concurrently or at 3, 6, 9, or 24 hours post axotomy. Statistical analysis of degeneration index was performed by two-way ANOVA for the effect of time (F(4,32)=62.77, p<0.0001), treatment (F(5,8)=17.05, p=0.0004), and their interactions (F(20,32)=16.82, p<0.0001) with Holm-Šidák's multiple comparisons. […] See FIG. 15 (error bars indicate +/−1 SEM).
Transected axons were treated at the time of injury with the DLK inhibitor GNE-3511 or vehicle (DMSO) and with the combination of FK866/NaR either at the time of injury or with an 8-hour delay. […] Statistical analysis of degeneration index was performed by two-way ANOVA for the effect of time (F(2.143, 17.15)=49.43, p<0.0001), treatment (F(3,8)=9.58, p=0.005), and their interactions (F(18,48)=13.99, p<0.0001) with Holm-Šidák's multiple comparisons. […] See FIG. 16B (error bars indicate +/−1 SEM).

[2] = system: NAD+ pathway metabolites (NMN, NAD+, cADPR, Nam) in transected axons; assay: Metabolite analysis of distal axons 8 hours post axotomy; format: cell-based
Experimental: Axons were transected and treated with vehicle (DMSO), the NAMPT inhibitor FK866, or FK866+NaR. Axons were collected at 8 hours post axotomy for metabolite analysis. […] Statistically significant changes between treated and untreated transected axons were analyzed with one-way ANOVA and Holm-Šidák's multiple comparisons; *=p<0.05, **=p<0.01, ***=p<0.001, #=p<0.0001. Error bars indicate +/−1 SEM.
Relative changes in protein-normalized levels of metabolites in distal axons were measured at 8 hours following transection and treatment at the time of injury with the MAPK inhibitor GNE-3511, the NAMPT inhibitor FK866 in combination with NaR, or with the three compounds together.

[3] = system: JNK, SCG10, NMNAT2 and α-Spectrin in murine DRG axons; assay: Western blot of distal axons after axotomy; format: cell-based
Experimental: as §1
Western blot analysis of distal axons was performed at 4 and 8 hours after transection and treatment with the DLK inhibitor GNE3511 or vehicle (DMSO).

[4] = system: retinal ganglion cells (RGCs); assay: Impact acceleration (IA) TBI model: RGC survival, SNCG staining of retinal whole-mounts; format: in vivo, mice; conditions: intraperitoneal 60 mg/kg, treatment 21 days after IA; vehicle 1500 cells/mm2; p<0.05
Text: Experimental subjects and IA procedures Eight-week-old male C57BL/6 J wild-type mice and transgenic Dlk^fl/fl and Dlk^fl/flLzk^fl/fl mice were subjected to IA or sham injury. Male mice were chosen such as to avoid the confounding effects of sex hormones on injury outcomes. Wild-type mice and founders were purchased from Charles River Laboratories (Wilmington, MA). Animals were housed in a vivarium with a 12-h light/12-h dark cycle and given ad libitum access to food and water. All animal handling as well as surgical and postoperative procedures were carried out according to protocols approved by the Animal Care and Use Committee of the Johns Hopkins Medical Institutions.
Impact acceleration injury was performed with height weight settings generating kinetic energy of 0.45-0.5 Jupon impact, essentially as described (FIG. 21). Immediately prior to injury, the cranium was exposed and a 5 mm-thick stainless-steel disc was glued onto the skull midway between bregma and lambda sutures. Surgical procedures and injury were performed under aseptic conditions with gas anesthesia (isoflurane:oxygen:nitrous oxide=1:33:66). Immediately after injury the disc was removed the skull was checked under the surgical microscope for skull fractures. The rare animals with skull fractures were excluded from further study because such events introduce injuries variables that cannot be easily controlled. […]

[5] = in vivo; cited from earlier work
[6] = treatment immediately after axotomy
[7] = GNE vs FK+NaR and vs FK+NaR+GNE

Question: What does the source list for O=C(/C=C/c1cccnc1)NCCCCC1CCN(C(=O)c2ccccc2)CC1 [FK866]?
Answer: protection from axonal degeneration ([1]; in the absence of GNE-3511, added 2, 4, 6 or 8 hours post injury): provided protection especially when added at 2 hours; protection from axonal degeneration ([1]; with GNE-3511 at the time of injury, FK-866 added 2, 4, 6 or 8 hours post injury): enhanced at 2, 4 and 6 hours post injury; NAD+ degrading activity (cADPR/NAD+) relative to vehicle [2]: suppressed the NAD+ degrading activity; NAD+/NMN ratio compared to vehicle [2]: increases; NMN/Nam ratio compared to vehicle [2]: reductions; cADPR levels relative to vehicle [2]: only the combined treatment suppressed cADPR levels; NAD+ levels compared to vehicle treated transected axons ([2]; treatment at time of injury): protects NAD+ levels; NMN levels compared to vehicle treated transected axons ([2]; treatment at time of injury): suppressed NMN

Question: With N#Cc1ccnc(Nc2cc(C3CCN(C4COC4)CC3)cc(N3CCC(F)(F)C3)n2)c1 [GNE-3511] as the molecule, how does the “injury associated degradation of SCG10” value ([3]; 4 and 8 hours after transection) read?
Answer: suppressed the injury associated degradation of SCG10

Question: And the “phosphorylation of JNK” value ([3]; 4 hours after transection, vs vehicle (DMSO), n=3)?
Answer: suppressed phosphorylation of JNK

Question: And the “injury associated degradation of spectrin (p150 fragment to total spectrin)” value ([3]; 8 hours after transection)?
Answer: suppressed

Question: And the “degradation of NMNAT2 between 4 and 8 hours post-axotomy” value ([3]; significantly degraded in vehicle treated axons)?
Answer: not in the presence of GNE

Question: And the “calpain-mediated degradation of α-Spectrin” value [3, 6]?
Answer: ameliorated the calpain-mediated degradation

Question: And the “degradation of NMNAT2” value [3, 6]?
Answer: reduced the degradation

Question: What about the “phosphorylation of SCG10” value [3, 6] of the same molecule?
Answer: reduced phosphorylation

Question: And the “phosphorylation of the downstream JNKs” value [3, 6]?
Answer: reduced phosphorylation

Question: And the “protection from axonal degeneration” value ([1]; applied before (2 h pre-treatment) or immediately following injury (0 h))?
Answer: Significant protection

Question: What about the “protection from axonal degeneration” value ([1]; more delayed regimes (2 and 4 hours post-injury)) of the same molecule?
Answer: lesser protection

Question: What about the “cADPR/NAD+ ratio, difference vs FK+NaR” value [2] of the same molecule?
Answer: significant differences

Question: What about the “NAD+/NMN ratio, difference between treatment groups” value [2, 7] of the same molecule?
Answer: significant differences

Question: What about the “Nam/NAD+ ratio, difference between treatment groups” value [2, 7] of the same molecule?
Answer: significant differences

Question: What about the “NAD+ levels compared to FK+NaR or the triple combination” value ([2]; treatment at time of injury) of the same molecule?
Answer: greater protection of NAD+ levels

Question: Which “axon protection (degeneration index) compared to FK866 alone” value ([1]; NaR added 3, 6 or 9 hours post-axotomy in the presence of FK866, up to 4 days post-injury, p<0.0001) does the source give for NC(=O)c1ccc[n+]([C@@H]2O[C@H](CO)[C@@H](O)[C@H]2O)c1 [NaR, nicotinamide riboside] here?
Answer: significantly protected axons

Question: What about the “axon protection (degeneration index) compared to FK866 alone” value ([1]; NaR added at 24 hours in the presence of FK866) of the same molecule?
Answer: no additive effect

Question: What about the “delay of NaR supplementation after axotomy with minimal and/or no loss of efficacy in suppressing axon fragmentation” value ([1]; in the presence of FK866 given after injury) of the same molecule?
Answer: up to 9 hours

Question: Which results are given for CCN(CC)CCNC(=O)c1c(C)[nH]c(/C=C2\C(=O)Nc3ccc(F)cc32)c1C [sunitinib]?
Answer: number of surviving RGCs [4]: ~2300 cells/mm2; CNS penetration [5]: penetrates the CNS
